Results from ChEMBL document CHEMBL1157539, “Thousands of chemical starting points for antimalarial lead identification” (Nature, 2010).

System: Plasmodium falciparum
Experiment: GSK_TCMDC: Inhibition of Plasmodium falciparum 3D7 in whole erythrocytes, using parasite LDH activity as an index of growth.
Format: functional, organism-based
Details: Plasmodium falciparum, 3D7

Compound	XC50 [nM]
CC1(C)N=C(N)N=C(N)N1c1ccc(Oc2ccccc2)cc1	341
O=C(CCc1ccccc1)NC(c1ccc(Cl)cc1)c1ccc2cccnc2c1O (configuration not stated)	847
O=C(Nc1ccc(Cl)cc1)N(CC1CC2CCC(C1)N2Cc1ccc(C(F)(F)F)cc1)c1ccc(N2CCOCC2)c(F)c1 (configuration not stated)	1070
CC(C)c1ccc(NC(=O)N2CCc3ccc(OCCN(C(C)C)C(C)C)cc32)c(Br)c1	1090
O=C(c1ccc(Br)o1)N1N=C(c2cccs2)CC1c1ccc(Br)cc1 (configuration not stated)	513
CCCCCn1c(Sc2ccc(C#N)c([N+](=O)[O-])c2)nnc1-c1ccccc1	860
CCCC(C)NC(=O)c1cnn(-c2ccc(C(C)(C)C)cc2)c1OCc1ccc(Br)cc1 (configuration not stated)	1060
Cc1cccc2nc(-c3ccc(-c4cccc(NC(=O)c5cncn5C)c4)cc3)[nH]c12	861
Oc1cccc(Nc2nc(NCC3CCCO3)c3ccccc3n2)c1 (configuration not stated)	812
CN(CCCCNC(=O)c1cc2ccccc2[nH]1)C1CC2(CCN(C(=O)OC(C)(C)C)CC2)c2ccccc21 (configuration not stated)	928
CS(=O)(=O)c1cccc(-c2cnc3[nH]cc(-c4ccc(C(=O)O)cc4)c3c2)c1	335
CC1CN(Cc2cccc(F)c2)CCN1c1ccc(NC(=O)c2ccc(F)cc2)cc1 (configuration not stated)	580
Cc1cccc(Nc2nc3nonc3nc2Nc2cccc(Cl)c2Cl)c1C	1030
Nc1c2c(nc3ccccc13)C(=Cc1ccc(O)cc1)CCC2	176
CCn1c(-c2nonc2N)nc2cnc(Oc3cccc(NC(=O)c4ccc(OCCN5CCCCC5)cc4)c3)cc21	1060
O=C(CC1CCCC1)N(CC1CCN(Cc2ccc(C(F)(F)F)cc2)CC1)c1ccc(N2CCOCC2)c(F)c1	432
CC(C)CNCc1cccc(-c2ccccc2CNC2CCN(Cc3ccccc3)CC2)c1	579
Cc1ccccc1OCCCON1C(=N)N=C(N)NC1(C)C	3.2
Nc1ccc(-c2nc3c(ccc4ccccc43)[nH]2)cc1	941
Cc1nc(N)nc(N)c1OCc1cccc2ccccc12	72.7
COc1cc2nc(N3CCC(CNC(=O)c4ccc(-c5ccc(Cl)cc5)cc4)CC3)nc(N)c2cc1OC	147
CC(=O)Nc1cccc(Nc2nccc(Nc3ccc(Oc4ccccc4)cc3)n2)c1	745
Cc1cc(N[C@@H](Cc2ccccc2)C(=O)NC2CCCC2)nc(NCCOc2ccccc2)n1	1110
O=C(c1cccc(-c2noc(C(F)(F)F)n2)c1)N1CCN(C(=O)c2ccc3cc[nH]c3c2)CC1	107
Cc1ccc(Cl)cc1NC(=O)c1c(-c2ccccc2Cl)noc1C	192

Compound	XC50 [nM]
CC(Cc1ccc(NS(=O)(=O)c2ccc(CC(C)NCCc3cccc(Cl)c3)cc2)cc1)NCCc1cccc(Cl)c1 (configuration not stated)	775
CCOC(=O)C1=C(C)N=c2sc(=Cc3ccccc3O)c(=O)n2C1c1ccc(OC)c2ccccc12 (configuration not stated)	1260
CC(C)c1ccc(NC(=O)c2ccc(C(=O)NC3CCN(CC4CCCCC4)CC3)cc2)cc1	645
COc1nc2c(CCN3CCC(NCc4ccc5c(n4)NC(=O)CO5)CC3)c(Cl)cnc2cc1F	418
O=C(NCC1CN(Cc2ccc(N3CCCC3)o2)CCCO1)c1ccc2c(c1)OCO2 (configuration not stated)	839
CCN1CCC(N(Cc2ccc(-c3ccc(C(F)(F)F)cc3)cc2)C(=O)Cn2nc(C)c(=O)cc2SCc2ccc(F)cc2)CC1	1010
CC(=O)N1N=C(c2ccc(Cl)cc2)Sc2c1nc(C1CCCCC1)n2C(C)=O	249
O=C(CCNc1ccnc(NCC2CCCCC2)n1)Nc1ccccc1	1100
CCCN(C(=O)c1ccccc1C)c1nnc(-c2ccccc2C)s1	1110
CCC[C@@H]([C@@H](CC1CCCCC1)C(=O)N[C@H](C(=O)Nc1nccs1)[C@H](C)O)N(O)C=O	148
Cc1ccc2c(c1)nc(N)n2C[C@H](O)c1ccccc1	582
COc1ccc(O)c(Cc2cnc3nc(N)[nH]c(=O)c3c2C)c1	234
COCC(C)n1c(SC(C)C(=O)Nc2cc([N+](=O)[O-])ccc2Cl)nc2ccccc2c1=O (configuration not stated)	229
CCN(CC)c1ccc(C(c2ccc(N(CC)CC)cc2)c2cccc([N+](=O)[O-])c2)cc1	381
O=C(Nc1cccc(CN2CCCN(Cc3ncc[nH]3)CC2)c1)c1cc2ccccc2s1	734
CC1CCCC(C)N1C[C@@H](O)CNS(=O)(=O)c1cccc(C(F)(F)F)c1 (some centres not stated)	692
COc1ccc2nc(-c3ccc(C(=O)NCCCN4CCN(c5cc(Cl)ccc5OC)CC4)cc3OC)[nH]c2c1	872
CN(C)CCCn1cncc1-c1ccc2ncnc(Nc3ccc4c(cnn4Cc4ccccc4)c3)c2c1	726
Cc1nc2nc(N)nc(N)c2c(C)c1Cc1cccc(F)c1	341
Cc1ccc(NC(=S)NC2CCN(CCCCCNC(=O)/C=C/c3ccc(Cl)c(Cl)c3)CC2)cc1Cl	992
CC(=O)Oc1c(C2C=CCCC2)c(OC(C)=O)c2ccccc2c1OC(C)=O (configuration not stated)	605
N#Cc1ccc(-c2ccc(C(=O)NC3CCN(CCN4CCC(c5cn(CCOC6CCCCO6)c6ccccc56)CC4)CC3)cc2)cc1 (configuration not stated)	599
O=C(CCn1cncn1)N1CCCC(c2[nH]c3ccccc3c2-c2ccncc2)C1 (configuration not stated)	800
Cc1nc(-c2cccc(Nc3nccc(NCC(O)c4cccc(C(F)(F)F)c4)n3)c2)cs1 (configuration not stated)	627
CC(C)(C)c1cc(CN2CCN(Cc3ccccc3)CC2)cc(C(C)(C)C)c1O	771

Compound	XC50 [nM]
Cc1cc(C(F)(F)F)n2nc(C(=O)N(Cc3cncn3Cc3cccc(F)c3)CC3CC3)cc2n1	742
O=C(Nc1ccc(Oc2ccccc2)cc1)N[C@@H](Cc1ccc(O)cc1)C(=O)NC1CCN(Cc2ccc(O)c([N+](=O)[O-])c2)C1 (some centres not stated)	1510
Cc1cc(NC(=O)NCCN2CCC(NS(=O)(=O)c3ccccc3Cl)C2)c2ccccc2n1 (configuration not stated)	815
O=C(/C=C/c1cc(C(F)(F)F)ccc1F)NC1CCC(CN2CCC(c3c[nH]c4ccccc34)CC2)CC1 (configuration not stated)	818
Clc1ccc2c(NN=Cc3cccs3)ccnc2c1	922
COc1cccc2c(NCCNc3ccnc4c(OC)cccc34)ccnc12	267
Clc1nc2ccccn2c1C=Cc1ccc2ccccc2n1	267
COc1nc2c(CCN3CC[C@@H](NCc4cc(C#N)c5c(c4)CCO5)[C@@H](O)C3)ccnc2cc1F	1030
CC(=O)c1ccc2nc[nH]c(=O)c2c1	722
Fc1ccc(Nc2ccnc3cc(-c4ccc(CN5CCOCC5)o4)ccc23)c(Cl)c1	756
O=C(c1cc(-c2ccccc2)n[nH]1)N1CCN(S(=O)(=O)c2ccc(Cl)s2)CC1	925
Cc1ccnc(NC(c2cccc(OCc3ccccc3)c2)c2ccc3cccnc3c2O)c1 (configuration not stated)	864
Cc1c[nH]c(CCNC(=O)c2cc(-c3ccc(Cl)cc3)cs2)n1	242
COc1ccccc1C1CCN(C2CCC(NC(=O)/C=C/c3cc(F)cc(F)c3)CC2)CC1 (configuration not stated)	1110
CCOc1ccc(-c2nonc2NC(=O)c2ccccc2)cc1OCC	257
CN1CCN(Cc2ccc(-c3cc4c(Nc5ccc(OCc6cccc(F)c6)c(Cl)c5)ncnc4s3)[nH]2)CC1	766
O=C(/C=C/c1ccc(Cl)c(Cl)c1)NCCCCCCN1CCN(C(=O)Nc2cccc(Cl)c2)CC1	981
Cc1ccoc1C(=O)Nc1cccc(-c2cccc(-c3nc4cc(C(F)(F)F)ccc4[nH]3)c2)c1	613
CCOC(=O)c1cnc2c(OC)cc(OC)c(Cl)c2c1Nc1ccccc1	871
COc1ccc2nc3cc(Cl)ccc3c(NCCCCN3CCNCC3)c2c1	183
COc1ccc(NS(=O)(=O)c2cccc(C(=O)Nc3ccc(C(F)(F)F)cc3)c2)cc1N1CCN(CC(C)C)CC1	838
CN1CCN(Cc2nc(-c3ccc4c(Nc5ccc(Oc6ccccc6)cc5)ccnc4c3)cs2)CC1	310
CC(C)Cn1c(N)cc(=O)n(C)c1=O	978
COc1ccc2ccccc2c1C=NN=c1cc[nH]c2ccc(F)cc12	1110
Cc1ccccc1C1CCN(c2ncc(C(=O)NC3CC3)cc2Cl)CC1	697

Compound	XC50 [nM]
COCCn1c(Sc2ccc(C#N)c([N+](=O)[O-])c2)nnc1-c1ccc(N(C)C)cc1	1030
N#Cc1c(Cl)cccc1Oc1ccc(S(=O)(=O)N2CCC(CN3CCC(c4c[nH]c5ccccc45)CC3)CC2)cc1	745
CC[C@H]1CN2CC[C@H]1C[C@H]2[C@H](O)c1cc(N2CCC3CCCCC3C2)nc2ccc(OC)cc12 (some centres not stated)	170
O=C(NCCCCCN1CCC(c2c[nH]c3ccccc23)CC1)Nc1ccc(Cl)c(Cl)c1	920
CCc1cn2c3c(cc(C(=O)N[C@@H](Cc4cc(F)cc(F)c4)[C@H](O)CNC4CCCCC4)cc13)N(C)S(=O)(=O)CC2	34.5
Cc1cc(NC(=O)Nc2ccc(Oc3ccccc3)cc2)c2ccccc2n1	840
CN1CCC(NCc2ccc(-c3ccc(Cl)cc3)cc2)CC1	750
O=C(NC1CCN(c2ccc(F)cc2[N+](=O)[O-])CC1)c1cccs1	675
O=C(CN1CCCC1)Nc1cccc(C(=O)Nc2cccc(C(F)(F)F)c2)c1	510
CCCN(c1ccc(C(F)(F)F)cc1[N+](=O)[O-])S(=O)(=O)C(c1ccccc1)c1ccc(C(F)(F)F)cc1[N+](=O)[O-] (configuration not stated)	1220
N#Cc1ccc(CN2CCCN(Cc3cccc(NC(=O)c4ccc(-c5ccccc5)cc4)c3)CC2)cc1	1020
CCN1C(=O)C(CC(=O)Nc2cccc(Cl)c2)N(Cc2ccc(OC)c(OC)c2)C1=S (configuration not stated)	607
CN1C(C)(C)CC(NC(=O)c2ccc(-c3nc4cc(Cl)ccc4[nH]3)cc2)CC1(C)C	991
COc1ccc(Nc2ncc3c(-c4cccc(NC(=O)c5ccc(N)cc5)c4)c[nH]c3n2)cc1OC	975
Cc1cc(Nc2ccccc2)nc(Nc2ccccc2)n1	799
Cc1cccc2nc(-c3ccc(-c4ccc(NC(=O)Nc5ccc(Cl)c(Cl)c5)cc4)s3)[nH]c12	176
CCc1c(C)nc(-n2nc(C)cc2NC(=O)CC(c2ccccc2)c2ccccc2)[nH]c1=O	652
Cc1cccc2nc(-c3cccc(-c4ccc(CN5CCCC5CN)cc4)c3)[nH]c12 (configuration not stated)	760
Cc1cc(C)cc(OCC(O)CN(Cc2cc(Cl)cc(Cl)c2)C(=O)Nc2ccc([N+](=O)[O-])cc2)c1 (configuration not stated)	804
Cc1cccc2c3c([nH]c12)C1(CCN(CCc2ccccc2)CC1)NC(C(=O)NCc1ccccc1)C3 (configuration not stated)	1000
COc1cccc(C(C)(C)NC[C@@H](O)[C@H](Cc2ccccc2)NC(=O)c2cc(C3CCCC3)cc(N3CCCCS3(=O)=O)c2F)c1	28.9
Cc1cccc2nc(-c3cccc(-c4cccc(NC(=O)c5ccc(C(N)=O)cc5)c4)c3)[nH]c12	323
